In publication PMC10254045, “Elaboration of the Effective Multi-Target Therapeutic Platform for the Treatment of Alzheimer’s Disease Based on Novel Monoterpene-Derived Hydroxamic Acids” (International Journal of Molecular Sciences, 2023):

Columns and labels:
[1] = DPPH radical scavenging activity; conditions: Trolox equivalent; compounds and Trolox 100 µM
Description: (§1) DPPH is a stable chromogen radical, which is widely used to assess the antioxidant activity of biological objects, in particular when searching for potential therapeutic agents used to maintain the redox balance in the body and treat pathologies associated with the action of free radicals. In turn, the oxygen radical absorbance capacity (ORAC) analysis is based on the removal by potential antioxidants of peroxyl radicals generated by AAPH (2,2’-axobis-2-methyl-propanimidamide, dihydrochloride), preventing the degradation of the fluorescein probe.
The measurement of the antiradical activity of synthesized hydroxamic acids was carried out using the method described in [150]. The studied compounds were introduced into the wells of a 96-well black tablet (the final concentration was 100 microns), after which a freshly prepared solution of 2,2-diphenyl-1-picrylhydrazyl (Sigma Aldrich, St. Louis, Missouri, USA) was added. After the incubation time had elapsed, the DPPH radical-scavenging activity was measured using a multifunctional Cytation™3 tablet analyzer (BioTek Instruments, Inc., Winooski, VT, USA) at λ = 517 nm by the difference in the reduction of the DPPH radical peak between control samples containing an equivalent volume of solvent and samples with the substances under study.

[2] = Oxygen radical absorbance capacity (ORAC); conditions: Trolox equivalent; compounds and Trolox 100 µM, AAPH 12 mM
Description: as §1
The analysis of the absorption capacity of oxygen radicals was performed as described in [151], with some modifications. Trolox (Sigma Aldrich, St. Louis, MI, USA) was used as a standard antioxidant. The studied compounds were introduced into the holes of a 96-hole black tablet with a transparent bottom with Trolox (25 µL; the final concentration was 100 µM) and fluorescein (150 µL; the final concentration was 80 nM, Sigma Aldrich, St. Louis, MI, USA). The resulting mixture was shaken and incubated for 30 min at 37 °C. After a 30-min incubation period, a solution of 2,2’-azobis (2-amidinopropane) dihydrochloride (AAPH) (25 µL; final concentration of 12 mM, Sigma Aldrich, St. Louis, MI, USA) was quickly introduced into all wells of the tablet. The tablet was immediately placed in a multifunctional tablet analyzer Cytation™ 3 (BioTek Instruments, Inc., Winooski, VT, USA). The fluorescence intensity was recorded for 300 min at λex = 480 nm, λem = 520 nm with an interval of every 5 min. In the same experiment, calibration solutions for the reference antioxidant Trolox were used to confirm the validity of the use of this method (0, 6.25, 12.5, 25, 50 and 100 µM).

Cell viability, MTT test = type: cell-based; conditions: human, SH-SY5Y neuroblastoma cells, 24-h exposure, read-out: IC50 cytotoxic action
Procedure: The culture of human neuroblastoma cells (defined as SH-SY5Y) was cultured in DMEM with the addition of embryonic bovine serum (10%), 2 mM glutamine (DiaM, Moscow, Russia) and penicillin-streptomycin (100 U/Ml–100 µg/mL, PanEco, Moscow, Russia) in conditions of 5% CO2 in the air at 37 °C. Upon reaching 80% confluence, cells in the amount of 1 × 10^4 were placed in 96-well transparent plates and incubated under the same conditions for 24 h. After the incubation time, the cells were exposed to a 24-h exposure to various concentrations of hydroxamic acids dissolved in dimethyl sulfoxide (range from 1 to 100 µM). An equivalent volume of solvent was used as a control (final DMSO content = 1%).
Cell survival analysis was performed using MTT test. To do this, 3-(4,5-dimethylthiazol-2-yl)-2,5-diphenyltetrazolium bromide (MTT, 5 mg/mL, DiaM, Moscow, Russia) was introduced into all wells and incubated at 37 °C for 2 h to restore metabolically active cells of the yellow tetrazolium salt MTT to purple formazane crystals. The resulting formazane was then re-suspended in 200 µL DMSO per well. The optical density was recorded using a multifunctional Cytation™3 flatbed analyzer (BioTek Instruments, Inc., Winooski, VT, USA) at λ = 530 nm.

[3] = tested on: 5xFAD transgenic mice brain; test: Histology of β-amyloid deposits in brain samples (Congo Red); type: in vivo; conditions: 21-day administration; cortex, midbrain and hippocampus zone; vs 5xFAD
Description: As part of the in vivo testing of the biological activity of the leader compound, a transgenic mouse model with Alzheimer’s disease 5xFAD at the age of 13 months was used. This line expresses two human genes: APP (amyloid peptide precursor protein gene) with three types of mutations (Swedish (K670N, M671L), Florida (I716V) and London (V717I)), as well as the presenilin 1 gene with mutations (M146L and L286V) characteristic of this disease. Clinically healthy wildtype single-litter mice C57Bl6/j (n = 8) were used as a control group. Transgenic 5xFAD mice were randomly divided into two groups: (1) animals receiving intraperitoneal injections of hydroxamic acid 35a at a dose of 15 mg/kg (10% DMSO + NaCl) for three weeks—the 5xFAD + 35a group (n = 8) and (2) mice receiving an equivalent volume of solvent—the group 5xFAD (n = 8). All animals were kept in standard vivarium conditions at a temperature of 22 ± 1 °C and a humidity of 55% indoors with a 12-h light–dark cycle. The animals had no restrictions in the consumption of water and food. […]
After cervical dislocation, the half of brain was dissected and fixed with Carnoy’s solution (ethanol–chloroform–glacial acetic acid, 6:3:1) for 17 h. […] The stained deposits were evaluated using a ZEISS LSM 880 laser scanning microscope (Carl Zeiss, Oberkochen, Germany) in the tile scan mode. […]

Question: With `C=C(C)[C@@H]1CC=C(CNC(=O)/C=C/c2ccc(C(=O)NO)cc2)CC1` [Compound 35a, (S,E)-N-hydroxy-4-(3-oxo-3-(((4-(prop-1-en-2-yl)cyclohex-1-en-1-yl)methyl)amino)prop-1-en-1-yl)benzamide] as the compound, how does the “DPPH value (TE)” value [1] read?
Answer: 0.88 TE

Question: And the “ORAC value (TE)” value [2]?
Answer: 1.15 TE

Question: And the IC50 at 24 h (Cell viability, MTT test)?
Answer: 89.2 ± 2.09 µM

Question: And the “number of β-amyloid aggregates in the brain” value [3]?
Answer: decreased significantly
